The target in experiment [1] is T1, catalytic domain (JH1, amino acids 826-1132) of human JAK2 (Homo sapiens, UniProt O60674).
T1 construct: catalytic domain (JH1, amino acids 826-1132) of human JAK2; FLAG (N); purchased Carna Biosciences 08-445-20N; host or cells: baculovirus expression system
The experiment can be described thus: JAK2 LanthaScreen JH1 Binding Assay. Conditions: JAK2 JH1 (1.5 nM), 50 nM fluorescent JAK2-JH1 tracer, 2 hours at 25° C.; read-out: JH1 BIND. In a few lines:
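FLAG-tagged, biotinylated JAK2 JH1 (aa 826-1132, baculovirus-expressed; 1.5 nM) incubated 2 h at 25° C with compounds, 50 nM fluorescent tracer and 0.5 nM Streptavidin-Tb in Tris pH 7.5 buffer with MgCl2, Brij-35, BSA, EGTA, glycerol, DTT. Nonspecific binding defined with 2 mM ATP; TR-FRET IC50 from four-parameter fit.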
A general note: TR-FRET usually uses a lanthanide donor and a delayed reading to cut background.

Experiment [2] deals with T2, pseudo-kinase domain (JH2, amino-acids 536-812 with 3 surface mutations W659A, W777A, F794H) of human Wild Type JAK2 (Homo sapiens, UniProt O60674, F794H/W659A/W777A).
T2 construct: pseudo-kinase domain (JH2, amino-acids 536-812 with 3 surface mutations W659A, W777A, F794H); His (C); Avi (biotinylated) (C); purchased BPS Bioscience 79463; host or cells: baculovirus expression system
T2 sequence (O60674 536-812 W659A/W777A/F794H): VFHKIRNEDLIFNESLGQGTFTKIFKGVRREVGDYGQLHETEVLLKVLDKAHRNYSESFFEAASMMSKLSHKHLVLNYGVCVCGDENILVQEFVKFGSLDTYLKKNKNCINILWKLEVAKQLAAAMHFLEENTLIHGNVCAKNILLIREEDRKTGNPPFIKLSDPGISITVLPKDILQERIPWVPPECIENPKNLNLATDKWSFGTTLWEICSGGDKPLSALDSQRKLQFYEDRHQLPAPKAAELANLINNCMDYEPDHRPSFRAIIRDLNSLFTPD
In words: JAK2 LanthaScreen JH2-WT Binding Assay. The settings on record: JAK2 JH2-WT (0.145 nM), 50 nM Fluorescent JAK2-JH2 Tracer, 1 hour at 25° C.; read-out: JH2 BIND WT. In a few lines: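 Compounds, serially diluted, were mixed with 0.145 nM JH2 domain, 50 nM tracer and 0.25 nM streptavidin-Tb cryptate, then incubated 1 hour at 25° C before LanthaScreen reading. Wells containing 2 mM ATP defined non-specific binding. Four-parameter dose-response curves gave IC50.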

The target of experiment [3] is T3, pseudo-kinase domain (JH2, amino-acids 536-812 with 3 surface mutations W659A, W777A, F794H) of human V617F mutant JAK2 (Homo sapiens, UniProt O60674, F794H/V617F/W659A/W777A).
T3 construct: pseudo-kinase domain (JH2, amino-acids 536-812 with 3 surface mutations W659A, W777A, F794H); His (C); Avi (biotinylated) (C); purchased BPS Bioscience 79498; host or cells: baculovirus expression system
T3 sequence (O60674 536-812 V617F/W659A/W777A/F794H): as the sequence (O60674 536-812 W659A/W777A/F794H) above, with V82F counted along it
In words: JAK2 LanthaScreen JH2-V617F Binding Assay. Conditions: JAK2 JH2-V617F (0.26 nM), 50 nM Fluorescent JAK2-JH2 Tracer, 1 hour at 25° C.; read-out: JH2 BIND V617F. In a few lines:
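IC50 values came from four-parameter dose-response fits of LanthaScreen signal, read after compounds sat 1 hour at 25° C with 0.26 nM baculovirus-expressed biotinylated protein, 50 nM fluorescent tracer and 0.25 nM streptavidin-Tb cryptate. Non-specific binding was set with 2 mM ATP.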

SMILES strings stand for the structures.

T1 sequence (O60674 826-1132): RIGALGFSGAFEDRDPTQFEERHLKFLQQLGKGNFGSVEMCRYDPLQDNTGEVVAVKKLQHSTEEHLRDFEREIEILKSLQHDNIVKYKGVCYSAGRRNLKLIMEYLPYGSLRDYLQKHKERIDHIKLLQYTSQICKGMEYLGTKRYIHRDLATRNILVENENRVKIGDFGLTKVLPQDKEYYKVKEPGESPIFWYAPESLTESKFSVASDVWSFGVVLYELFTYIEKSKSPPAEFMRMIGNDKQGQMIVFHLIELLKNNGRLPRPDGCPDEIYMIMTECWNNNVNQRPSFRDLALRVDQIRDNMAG

Take `Cn1cc(-c2[nH]c3ncc4c(c3c2-c2ccc3c(cnn3C)c2)n([C@H]2CC[C@@H](CC#N)CC2)c(=O)n4C)cn1` [Example 102, 2-((1S,4S)-4-(3-Methyl-8-(1-methyl-1H-indazol-5-yl)-7-(1-methyl-1H-pyrazol-4-yl)-2-oxo-3,6-dihydroimidazo[4,5-d]pyrrolo[2,3-b]pyridin-1(2H)-yl)cyclohexyl)acetonitrile]: the figures for the IC50 in experiment [1], in experiment [2] and in experiment [3] were 10 to 100 nM, at most 10 nM and at most 10 nM, respectively.

With `CC(C)n1c(=O)n(C)c2cnc3[nH]c(-c4cnn(CC(C)(C)O)c4)c(-c4ccc5c(c4)CCC5O)c3c21` (stereo not drawn) [Example 86, 8-(1-Hydroxy-2,3-dihydro-1H-inden-5-yl)-7-(1-(2-hydroxy-2-methylpropyl)-1H-pyrazol-4-yl)-1-isopropyl-3-methyl-3,6-dihydroimidazo[4,5-d]pyrrolo[2,3-b]pyridin-2(1H)-one], the IC50 in experiment [1] is over 1000 nM; in experiment [2], at most 10 nM; in experiment [3], 10 to 100 nM.

As for `CC(C)n1c(=O)n(C)c2cnc3[nH]c(C4CC4)c(-c4ccc(C#N)cc4)c3c21` [Example 39], the IC50 in experiment [1] was over 1000 nM; in experiment [2] it was 10 to 100 nM; in experiment [3], 10 to 100 nM.

Turning to `COc1ccc(-c2c(-c3ccc(CN4CCC(S(C)(=O)=O)CC4)cc3)[nH]c3ncc4c(c23)n(C2CCCCC2)c(=O)n4C)cc1` [Example 19, 1-Cyclohexyl-8-(4-methoxyphenyl)-3-methyl-7-(4-((4-(methylsulfonyl)piperidin-1-yl)methyl)phenyl)-3,6-dihydroimidazo [4,5-d]pyrrolo[2,3-b]pyridin-2(1H)-one], the IC50 in experiment [1] was 10 to 100 nM; in experiment [2], at most 10 nM; in experiment [3], at most 10 nM.

Take `Cn1c(=O)n(C2CC3CCC2C3)c2c3c(-c4ccccc4)c(-c4cnn(CS(C)(=O)=O)c4)[nH]c3ncc21` (stereo not drawn) [Example 45, 1-(Bicyclo[2.2.1]heptan-2-yl)-3-methyl-7-(1-((methylsulfonyl)methyl)-1H-pyrazol-4-yl)-8-phenyl-3,6-dihydroimidazo[4,5-d]pyrrolo[2,3-b]pyridin-2(1H)-one]: the IC50 in experiment [1] is 10 to 100 nM; in experiment [2], at most 10 nM; in experiment [3] it was 10 to 100 nM.

Take `CC(C)n1c(=O)n(C)c2cnc3[nH]c(-c4cnn(Cc5ccncc5)c4)c(-c4ccc(C#N)cc4)c3c21` [Example 36, 4-(1-Isopropyl-3-methyl-2-oxo-7-(1-(pyridin-4-ylmethyl)-1H-pyrazol-4-yl)-1,2,3,6-tetrahydroimidazo [4,5-d]pyrrolo[2,3-b]pyridin-8-yl)benzonitrile]: the IC50 is 100 to 500 nM in experiment [1], at most 10 nM in experiment [2] and at most 10 nM in experiment [3].

Take `Cn1c(=O)n(C2CCCC2)c2c3c(-c4cc5cnccc5s4)c(-c4cnn(CC(F)F)c4)[nH]c3ncc21` [Example 57, 1-Cyclopentyl-7-(1-(2,2-difluoroethyl)-1H-pyrazol-4-yl)-3-methyl-8-(thieno[3,2-c]pyridin-2-yl)-3,6-dihydroimidazo[4,5-d]pyrrolo[2,3-b]pyridin-2(1H)-one]: the IC50 in experiment [1] was 100 to 500 nM; in experiment [2], at most 10 nM; in experiment [3], at most 10 nM.

`Cn1ncc2cc(-c3c(C4CC4)[nH]c4ncc5c(c34)n(C3CCCC3)c(=O)n5C)ccc21` [Example 68, 1-Cyclopentyl-7-cyclopropyl-3-methyl-8-(1-methyl-1H-indazol-5-yl)-3,6-dihydroimidazo[4,5-d]pyrrolo[2,3-b]pyridin-2(1H)-one]: the IC50 in experiment [1] is 500 to 1000 nM; in experiment [2], at most 10 nM; in experiment [3] it was at most 10 nM.

For the compound `CC(C)n1c(=O)n(C)c2cnc3[nH]c(-c4cnn(CC(C)(C)O)c4)c(-c4cc5cnccc5s4)c3c21` [Example 75, 7-(1-(2-Hydroxy-2-methylpropyl)-1H-pyrazol-4-yl)-1-isopropyl-3-methyl-8-(thieno[3,2-c]pyridin-2-yl)-3,6-dihydroimidazo[4,5-d]pyrrolo[2,3-b]pyridin-2(1H)-one], the values for the IC50 in experiment [1], in experiment [2] and in experiment [3] were 500 to 1000 nM, at most 10 nM and at most 10 nM, respectively.

For the compound `Cn1c(=O)n(C2CCCOC2)c2c3cc(-c4ccc(CN5CCC(S(C)(=O)=O)CC5)cc4)[nH]c3ncc21` (stereo not drawn) [Example 15, 3-Methyl-7-(4-((4-(methylsulfonyl)piperidin-1-yl)methyl)phenyl)-1-(tetrahydro-2H-pyran-3-yl)-3,6-dihydroimidazo[4,5-d]pyrrolo[2,3-b]pyridin-2(1H)-one], the IC50 lay within 10 to 100 nM in experiment [1], 100 to 500 nM in experiment [2] and 100 to 500 nM in experiment [3].

As to `Cn1c(=O)n(C)c2c3c(C4CC4)c(-c4ccc(CN5CCC(S(C)(=O)=O)CC5)cc4)[nH]c3ncc21` [Example 34], the IC50 in experiment [1] is 500 to 1000 nM; in experiment [2], 500 to 1000 nM; in experiment [3], over 1000 nM.

As for `COc1ccc(-c2c(-c3ccc(CN4CCC(S(C)(=O)=O)CC4)cc3)[nH]c3ncc4c([nH]c(=O)n4C)c23)cc1` [Example 23, 8-(4-Methoxyphenyl)-3-methyl-7-(4-((4-(methylsulfonyl)piperidin-1-yl)methyl)phenyl)-3,6-dihydroimidazo[4,5-d]pyrrolo[2,3-b]pyridin-2(1H)-one], the IC50 is 100 to 500 nM in experiment [1], 10 to 100 nM in experiment [2] and 100 to 500 nM in experiment [3].

Turning to `CC(=O)N1CCN(c2ccc(-c3[nH]c4ncc5c(c4c3-c3ccc(C#N)cc3)n(C(C)C)c(=O)n5C)cc2)CC1` [Example 37, 4-(7-(4-(4-Acetylpiperazin-1-yl)phenyl)-1-isopropyl-3-methyl-2-oxo-1,2,3,6-tetrahydroimidazo [4,5-d]pyrrolo[2,3-b]pyridin-8-yl) benzonitrile], the IC50 is over 1000 nM in experiment [1], at most 10 nM in experiment [2] and at most 10 nM in experiment [3].

As for `Cn1c(=O)n(C(C)(C)C)c2c3cc(-c4ccc(CN5CCC(S(C)(=O)=O)CC5)cc4)[nH]c3ncc21` [Example 11, 1-(tert-Butyl)-3-methyl-7-(4-((4-(methylsulfonyl)piperidin-1-yl)methyl)phenyl)-3,6-dihydroimidazo[4,5-d]pyrrolo[2,3-b]pyridin-2(1H)-one], the IC50 in experiment [1], in experiment [2] and in experiment [3] was 10 to 100 nM throughout.

As to `Cn1cc(-c2[nH]c3ncc4c(c3c2-c2ccc3c(cnn3C)c2)n(C2CCN(C3(CC#N)CCC3)CC2)c(=O)n4C)cn1` [Example 111, 2-(1-(4-(3-Methyl-8-(1-methyl-1H-indazol-5-yl)-7-(1-methyl-1H-pyrazol-4-yl)-2-oxo-3,6-dihydroimidazo[4,5-d]pyrrolo[2,3-b]pyridin-1(2H)-yl)piperidin-1-yl)cyclobutyl)acetonitrile], the results for the IC50 in experiment [1], in experiment [2] and in experiment [3] were 500 to 1000 nM, at most 10 nM and at most 10 nM, respectively.

Consider `Cn1ncc2cc(-c3c(-c4cnn5cccnc45)[nH]c4ncc5c(c34)n(C3CCOCC3)c(=O)n5C)ccc21` [Example 90, 3-Methyl-8-(1-methyl-1H-indazol-5-yl)-7-(pyrazolo[1,5-a]pyrimidin-3-yl)-1-(tetrahydro-2H-pyran-4-yl)-3,6-dihydroimidazo[4,5-d]pyrrolo[2,3-b]pyridin-2(1H)-one], for which the values for the IC50 in experiment [1], in experiment [2] and in experiment [3] were over 1000 nM, at most 10 nM and at most 10 nM, respectively.

Take `CC(C)n1c(=O)n(C)c2cnc3[nH]c(-c4cnn(CC(C)(C)O)c4)c(-c4ccc(C5(C#N)CC5)cc4)c3c21` [Example 50, 1-(4-(7-(1-(2-Hydroxy-2-methylpropyl)-1H-pyrazol-4-yl)-1-isopropyl-3-methyl-2-oxo-1,2,3,6-tetrahydroimidazo [4,5-d]pyrrolo[2,3-b]pyridin-8-yl)phenyl) cyclopropane-1-carbonitrile]: the IC50 was 500 to 1000 nM in experiment [1], at most 10 nM in experiment [2] and at most 10 nM in experiment [3].

Consider `Cn1cc(-c2cc3c(ncc4c3[nH]c(=O)n4C)[nH]2)cn1` [Example 14, 3-Methyl-7-(1-methyl-1H-pyrazol-4-yl)-3,6-dihydroimidazo[4,5-d]pyrrolo[2,3-b]pyridin-2(1H)-one], for which the IC50 in experiment [1] is 100 to 500 nM; in experiment [2] it was over 1000 nM; in experiment [3], over 1000 nM.

These data come from patent publication US11780840B2 (Incyte Corporation, priority 2020, dated 2023).
